Source: US20230399359A1, “TETRAPEPTIDES, COMPOSITIONS COMPRISING THEM, AND THEIR COSMETIC USE” (Sederma, priority 2020, published 2023)
Residues, ends and D or L forms follow the SMILES beside them. *: point of attachment. Palmitoyl = CCCCCCCCCCCCCCCC(=O)*

Key:
Assay type in all cases: cell-based
Collagen I (PIP) = assay: ELISA assay of collagen I synthesis (PIP assay) in normal human fibroblast culture supernatants; conditions: NHF, 72 h contact, vs excipient control, weighted by Hoechst viability
Description: (§1) Normal human fibroblasts (NHF) in culture are brought into contact with the products to be tested or their excipient (negative control) for 72 h. At the end of the contact, the culture supernatants are removed, and the syntheses of the dermal macromolecules are estimated by ELISA assays. An estimate of cell viability is carried out by Hoechst assay to weight the obtained data.
Collagen I is evaluated via the PIP assay (carboxy-terminal propeptide of procollagen type I) which is a peptide fragment resulting from the enzymatic degradation of procollagen when the latter is excreted outside the fibroblast (therefore in the culture medium where the assay is carried out).

Fibronectine = assay: ELISA assay of fibronectin synthesis in normal human fibroblast culture supernatants; conditions: NHF, 72 h contact, vs excipient control
Description: as §1

Decorine = assay: ELISA assay of decorin synthesis in normal human fibroblast culture supernatants; conditions: NHF, 72 h contact, vs excipient control
Description: as §1

Collagen IV = assay: ELISA assay of collagen IV synthesis in normal human fibroblast culture supernatants; conditions: NHF, 72 h contact, vs excipient control
Description: as §1

Fibrillin 1 = assay: Immunofluorescence assay of Fibrillin 1 formation by normal human fibroblasts; conditions: NHF, five-day incubation, coverage density by image analysis
Description: Normal human fibroblasts (NHF) are cultured for at least 24 hours in fibroblast growth medium containing serum. Once confluence was reached, the cells are seeded, and the actives and corresponding controls diluted in a culture medium are added. At the end of a five-day incubation period, the supernatant is removed, the cells are washed with PBS and fixed. The cells are then incubated with the primary Fibrillin 1 monoclonal antibody (11C1.3) (Thermo Fisher) diluted in blocking buffer at a concentration of 1:200. The cells are incubated. The primary antibody is removed, and the cells are washed with PBS. The secondary antibody was added at a dilution of 1:1000 in blocking buffer, then removed and the cells are washed with PBS. The formation of Fibrillin 1 by the cells is visualized using a fluorescence microscope. The obtained images are analyzed using an image processing software assigning a numerical value to the coverage density.

## Pal-VPGA-OH: N-palmitoyl tetrapeptide Val-Pro-Gly-Ala with free C-terminal acid, prepared by the same synthetic process (Palmitoyl-VPGA-OH; SMILES CCCCCCCCCCCCCCCC(=O)N[C@H](C(=O)N1CCC[C@H]1C(=O)NCC(=O)N[C@@H](C)C(=O)O)C(C)C)
Collagen I (PIP); concentrations of 2 to 3 ppm
  Collagen I (PIP): +42%
Fibronectine; concentrations of 2 to 3 ppm
  Fibronectine: +115%
Decorine; concentrations of 2 to 3 ppm
  Decorine: +69%
Collagen IV; concentrations of 2 to 3 ppm
  Collagen IV: +49%
Fibrillin 1; 2 ppm
  Fibrillin 1 (significance): +92% (p < 0.05)

## CCCCCCCCCCCCCCCC(=O)N[C@@H](C)C(=O)N[C@H](C(=O)N1CCC[C@H]1C(=O)NCC(=O)O)C(C)C [Pal-AVPG-OH, palmitoyl-alanyl-valyl-prolyl-glycine] (Palmitoyl-AVPG-OH)
Collagen I (PIP); concentrations of 5 to 15 ppm
  Collagen I (PIP): +94%
Fibronectine; concentrations of 5 to 15 ppm
  Fibronectine: +38%
Decorine; concentrations of 5 to 15 ppm
  Decorine: +20%
Collagen IV; concentrations of 5 to 15 ppm
  Collagen IV: +35%
Fibrillin 1; 12.5 ppm
  Fibrillin 1 (significance): +121% (p < 0.05)
